According to patent US4368267A, “Epoxidation of lower α-olefins” (priority 1980, dated 1983):

Tests used:
[1] = tested on: Methylosinus trichosporium OB3b (NRRL B-11,196); assay: Methane hydroxylation and alkene epoxidation by washed cell suspensions; type: cell-based; conditions: for Propylene Oxide Formed: 3.6 mg cells; for Ability to hydroxylate methane or epoxidize C2 -C4 alkenes: methanol-grown washed cells
Procedure: The pH of the nutrient medium was adjusted to 7.0 by the addition of acid or base and 50 ml aliquots of the nutrient medium was charged into a plurality of 300 ml shake flasks. […] The isolates had been maintained on agar plates under an atmosphere of methane and air having a 1:1 v/v gas ratio which had been transferred every two weeks. The gaseous phase of the inoculated flasks was then replaced with a gas mixture comprised of methane and air having a ratio of 1:1 on a v/v basis. The inoculated flasks were sealed air tight and were incubated on a rotary shaker of orbital radius 2.5 cm at 250 rpm and at 30° C. for two days until the turbidity in the medium had developed.
(§1) The cells were harvested by centrifugation at 10,000 ×g at 4° C. for 30 minutes. The cell pellet was washed twice with a 0.15 M phosphate buffer at a pH of 7.0 (containing 0.002 M MgCl2). The washed cells were then suspended in a 0.15 M phosphate buffer at pH 7.0.
[…] The gaseous phase of the vials was removed with vacuum and then was replaced with a gas mixture of alkene and oxygen at a 1:1 v/v ratio. It was then incubated at 30° C. on a rotary shaker at 300 rpm. Samples of product (3 μl) were withdrawn periodically with a microsyringe and the products were analyzed by gas chromatography (ionization flame detector column).

[2] = tested on: P(40), P(80), S(80) cell fractions of Methylosinus sp. (CRL-15, NRRL B-11,202); assay: Oxidation of n-alkanes and n-alkenes by cell fractions; type: biochemical; conditions: for Uninhibited rate of oxidation: no inhibitor; for NADH Oxidized / O2 Consumed / Product Formed: substrate 5.0 μmoles; for Rate of Product Formation (substrate to 1,2-epoxide or alcohol) / 100% activity, product formed (storage study) / 100% activity, product formed (pH study) / 100% activity, product formed (temperature study): P(40) particulate fraction; for 100% activity, product formed (storage study): before storage at 0°-4° C.; for 100% activity, product formed (pH study): optimum pH 7.0; for 100% activity, product formed (temperature study): optimum temperature 35° C.
Procedure: Cells were washed twice with 25 mM potassium phosphate buffer, pH 7.0 containing 5 mM MgCl2. Cells were suspended in the same buffer. The cell suspensions at 4° C. were disintegrated by a single passage through a French Pressure cell (15,000 lb./in.^2) and centrifuged at 5000×g. for 15 min. to remove unbroken bacteria. The supernatant solution (crude extract) was then centrifuged at 40,000×g. for 30 min., yielding particulate P(40) and soluble S(40) fractions. The S(40) fraction was subsequently centrifuged at 80,000×g. for 60 min., yielding particulate P(80) and soluble S(80) fractions. The particulate fractions [P(40) and P(80)] were suspended in 25 mM potassium phosphate buffer, pH 7.0, containing 5 mM MgCl2 and homogenized at 4° C.
[…] The reaction mixtures contained in 1.0 ml: 150 mM potassium phosphate buffer, pH 7.0 containing 5 mM MgCl2, 0.6 ml; […] NADH, and cellular fraction.
Reaction mixtures were contained in 10 ml vials at 4° C. Vials were sealed with rubber caps. The gaseous phase in the vials was removed using vacuum and then was replaced with a gas mixture of methane or propylene and oxygen at a 1:1, v/v ratio. Oxidation of other gaseous n-alkanes and n-alkenes was examined as described above. For liquid substrates, 10 μl of substrate was used directly.
The products of epoxidation of n-alkenes and hydroxylation of n-alkanes were assayed by flame ionization gas chromatography using a stainless steel column (12'×1/8") packed with 10% Carbowax 20 M on 80/100 Chromosorb W and Porapak Q column. The column temperature was maintained isothermally at 120° C. The carrier gas flow rate was 30 ml/min. of helium. The various products were identified by retention time comparisons and co-chromatography with authentic standards.
Specific activities were expressed as μ moles of products formed per hour per mg. protein. Concentrations of protein in various fractions were determined by the method of Lowry et al., J. Biol. Chem. 193: 265-275 (1951).

[3] = tested on: Methylococcus capsulatus strain MC; assay: Stimulation of propylene epoxidation in cell suspensions; type: cell-based; conditions: propylene alone
Procedure: (§2) The pH of the nutrient medium was adjusted to 7.0 by the addition of acid or base and 50 ml aliquots of the nutrient medium was charged into a plurality of 300 ml shake flasks. The shake flasks were inoculated with an inoculating loop of cells from an agar plate containing homogeneous colonies of the microorganisms on the plate (the purity of the isolates were confirmed by microscopic examination). The isolates had been maintained on agar plates under an atmosphere of methane and air having a 1:1 v/v gas ratio which had been transferred every two weeks. The gaseous phase of the inoculated flasks was then replaced with a gas mixture comprised of methane and air having a ratio of 1:1 on a v/v basis. The inoculated flasks were sealed air tight and were incubated on a rotary shaker of orbital radius 2.5 cm at 250 rpm and at 30° C. for two days until the turbidity in the medium had developed.
as §1
(§3) A 0.5 ml aliquot of each washed cell suspension (2 mg cells) was put into 10 ml vials at 4° C. which were sealed with a rubber cap. The gaseous phase of the vials was removed with vacuum and then was replaced with a gas mixture of alkene and oxygen at a 1:1 v/v ratio. It was then incubated at 30° C. on a rotary shaker at 300 rpm. Samples of product (3 μl) were withdrawn periodically with a microsyringe and the products were analyzed by gas chromatography (ionization flame detector column).
(§4) Several experiments were carried out using a plurality of compounds capable of generating the necessary reducing power (NADH2 or NADPH2) required for the epoxidation of alkenes or dienes. These experiments were carried out using cell suspensions of methane grown methylotrophs using the procedure as described in Example 1 except that a stimulator compound was added to the reaction medium.

[4] = tested on: Methylosinus trichosporium OB3b (NRRL B-11,196); assay: Stoichiometry of the epoxidation of propylene by a cell-suspension; type: cell-based; conditions: 3.6 μmoles propylene; 3.1 mg protein; 3 min.
Procedure: As a comparison the stoichiometry of the epoxidation of propylene by a cell-suspension of Methylosinus trichosporium OB3b (NRRL B-11,196) was determined as follows. The reaction mixture (3.0 ml.) contained 0.05 M sodium phosphate buffer, pH 7.0 and 3.6 μmoles of propylene. The reaction was initiated by the injection of 0.1 ml. of cell-suspension (3.1 mg protein). A correction was made for the endogenous consumption of oxygen. The amount of oxygen consumed during the reaction (3 min.) was determined polarographically with a Clark oxygen electrode. The propylene consumed and the propylene oxide formed was estimated by gas chromatography. The propylene consumed was 0.29 μmoles, the oxygen consumed was 0.30 μmoles and the propylene oxide formed was 0.28 μmoles.

[5] = tested on: Methylobacterium organophilum (CRL 26, NRRL B-11,222); assay: Epoxidation/hydroxylation by washed cell suspensions; type: cell-based; conditions: propylene alone
Procedure: as §2, §1, §3, §4

[6] = Propylene + Methane + O2 (25:25:50 v/v), 15 minutes
[7] = methane-grown washed cells, 30° C.

Structure (SMILES): C [Methane]
- Propylene Oxide Formed [1, 6]: 0.8 µmol
- % Inhibition of propylene epoxidation [1, 6]: 50%
- Conversion rate, methane hydroxylation (methane to methanol) [1, 7]: 1.5 μmole/hr/mg protein
- Ability to hydroxylate methane or epoxidize C2 -C4 alkenes [1]: did not possess the ability
- Methane-Oxidizing Activity, P(40) ([2]; P(40) fraction, 30° C.): 4.8 μmoles of product formed per h
- Uninhibited rate of oxidation ([2]; P(40) fraction): 4.5 μmoles per hr. per mg. of prot
- NADH Oxidized ([2]; P(40) fraction): 4.8 µmol
- O2 Consumed ([2]; P(40) fraction): 4.6 µmol
- Product Formed ([2]; P(40) fraction): 4.2 µmol
- Propylene Oxide Produced ([2]; P(40) fraction, substrate Propylene + Methane (1:1, v/v)): 1.8 μmoles/hr/mg. protein
- Propylene Oxide Produced ([2]; P(40) fraction, substrate methane alone): 0 μmoles/hr/mg. protein
- Rate of Product Formation (substrate to 1,2-epoxide or alcohol) ([2]; 30° C.): 4.8 μmoles/hr/mg of protein
- 100% activity, product formed (storage study) [2]: 4.8 μmoles per hr. per mg. of prot
- 100% activity, product formed (pH study) [2]: 4.8 μmoles per hour, per mg protei
- 100% activity, product formed (temperature study) [2]: 5.0 μmoles per hour per mg of prot
- Methane-Oxidizing Activity, P(80) ([2]; P(80) fraction, 30° C.): 4.2 μmoles of product formed per h
- Methane-Oxidizing Activity, S(80) ([2]; S(80) fraction, 30° C.): 0 μmoles of product formed per h

Structure (SMILES): C=CC [Propylene]
- Rate of Product Formation (Propylene Oxide) [3]: 3.5 nmoles/hr/mg protein
- Propylene Oxide Formed [4]: 0.28 µmol
- oxygen consumed [4]: 0.30 µmol
- propylene consumed [4]: 0.29 µmol
- Propylene Oxide Formed ([1]; Propylene + Helium + O2 (25:25:50 v/v), 15 minutes): 1.6 µmol
- Conversion rate, propylene to propylene oxide [1, 7]: 3.6 μmole/hr/mg protein
- Ability to hydroxylate methane or epoxidize C2 -C4 alkenes [1]: did not possess the ability
- Rate of Product Formation (Propylene Oxide) [5]: 10 nmoles/hr/mg protein
- Propylene-Oxidizing Activity, P(40) ([2]; P(40) fraction, 30° C.): 3.8 μmoles of product formed per h
- Uninhibited rate of oxidation ([2]; P(40) fraction): 4.1 μmoles per hr. per mg. of prot
- NADH Oxidized ([2]; P(40) fraction): 5.0 µmol
- O2 Consumed ([2]; P(40) fraction): 4.8 µmol
- Product Formed ([2]; P(40) fraction): 4.5 µmol
- Propylene Oxide Produced ([2]; P(40) fraction, substrate propylene alone): 4.3 μmoles/hr/mg. protein
- Rate of Product Formation (substrate to 1,2-epoxide or alcohol) ([2]; 30° C.): 4.1 μmoles/hr/mg of protein
- 100% activity, product formed (storage study) [2]: 4.1 μmoles per hr. per mg. of prot
- 100% activity, product formed (pH study) [2]: 4.1 μmoles per hour, per mg protei
- 100% activity, product formed (temperature study) [2]: 4.2 μmoles per hour per mg of prot
- Propylene-Oxidizing Activity, P(80) ([2]; P(80) fraction, 30° C.): 3.7 μmoles of product formed per h
- Propylene-Oxidizing Activity, S(80) ([2]; S(80) fraction, 30° C.): 0 μmoles of product formed per h
